Experimental data taken from patent US4490376A, “Substituted ethenyl derivatives of 1H-pyrazolo-[1,5-a]pyrimidine having gastroenteric activity, compositions thereof, and methods of using the same” (Farmitalia Carlo Erba S.p.A, priority 1982, dated 1984).

How the values were obtained:
gastric secretion = experiment: inhibition of gastric secretion, pylorus ligature technique (Shay et al.), gastric antisecretory activity; type: in vivo, Sprague-Dawley male rats; details: rat; intraduodenal at the time of pylorus ligature; 4 hours; approximate ED50; read-out: Gastric anti-secretory activity ED50 i.d.
Text: (§1) The compounds of the present invention are active on the gastroenteric system, in particular they are endowed with anti-ulcerogenic and gastric anti-secretory activity and are therefore useful in therapy, for example in the prevention and treatment of peptic, e.g. duodenal, gastric and exophageal, ulcers and to inhibit gastric acid secretion. The compounds of the invention are also useful for reducing the undesirable gastrointestinal sideeffects resulting from systemic administration of antiinflammatory prostaglandin synthetase inhibitors and may be, therefore, used for this purpose in association with them. […] Six Sprague-Dawley male rats (100-120 g) fasted 24 hours were used for the experiment: a square flexible small-mesh were netting was used for the immobilization and 4 hours after the immobilization the rats were sacrificed, their stomachs were removed and the lesions counted under a dissecting microscope. […] Gastric antisecretory activity was evaluated in rats by the pylorus ligature technique. […] Four hours after the ligature the rats were sacrificed, the stomach secretion was collected and centrifuged at 3500 r.p.m. for 10 minutes, and the volume, less sediment, was determined.
The amount of the free hydrochloric acid in the gastric juice was determined by titration against 0.01N sodium hydroxide to pH 7.0 on the pH-meter.

restraint ulcers = experiment: inhibition of restraint ulcers in rats (Bonfils et al.), anti-ulcerogenic activity; type: in vivo, Sprague-Dawley male rats; details: po; rat; p.o. one hour before immobilization; lesions counted 4 hours after immobilization; approximate ED50; read-out: Antiulcerogenic activity ED50 p.o.
Text: as §1

[1] = approximate acute toxicity (LD50), single administration; details: in vivo, po; mouse; per os; single administration of increasing doses; measured on the seventh day
Procedure: In view of their high therapeutic index, the compounds of the invention can be used safely in medicine. For example, the approximate acute toxicity (LD50) of the compound 1-phenyl-5-trans-[2-(3-pyridyl)-ethenyl]-1H,7H-pyrazolo [1,5-a]pyrimidine-7-one (FCE 21542) in the mouse, determined by single administration of increasing doses and measured on the seventh day after the day of treatment, is higher than 400 mg/kg per os. Analogous toxicity data have been found for other compounds of the invention. The compounds of the invention can be administered in a variety of dosage forms, e.g. orally, in the form of tablets, capsules, sugar or film coated tablets, liquid solutions or suspensions, rectally, in the form of suppositories, parenterally, e.g. intramuscularly, or by intravenous injection or infusion. The dosage depends on the age, weight, conditions of the patient and administration route; for example the dosage adopted for oral administration to adult humans may range from about 50 to about 200 mg pro dose, from 1 to 5 times daily. The invention includes also pharmaceutical compositions comprising a compound of the invention in association with a pharmaceutically acceptable excipient (which can be a carrier or diluent).

With `O=c1cc(/C=C/c2cccnc2)nc2ccn(-c3ccccc3)n12` [FCE 21542, 1-phenyl-5-trans-[2-(3-pyridyl)-ethenyl]-1H,7H-pyrazolo[1,5-a]pyrimidine-7-one] the ED50 (gastric secretion) was about 3.2 mg/kg, the ED50 (restraint ulcers) was about 7 mg/kg and the LD50 at 168 h [1] was over 400 mg/kg.
